In US20030074686A1, “Novel method for the generation and selection of transgenic linseed/flax plants” (priority 1999, published 2003):
Values joined by “and” are separate entries in the source; they are usually repeats but may differ in a detail not shown here. Identical values can stand only once.

What was measured:
[1] = test system: Ed 45 288 transgenic shoots (JH5 vector); test: Survival of transgenic shoots on medium with G-418; assay type: in vivo, Linum usitatissimum; conditions: of four shoots
Text: (§1) Preferably, testing the two antibiotic system in the transformation experiments is done using kanamycin for the initial selection and G-418 for the second and third rounds of selection (FIG. 1).

[2] = test system: Flanders 301 transgenic shoots (JH5 vector); test: Survival of transgenic shoots on medium with G-418; assay type: in vivo, Linum usitatissimum; conditions: of four shoots
Text: as §1

[3] = test system: McGregor 324 transgenic shoots (JH5 vector); test: Survival of transgenic shoots on medium with G-418; assay type: in vivo, Linum usitatissimum; conditions: of four shoots
Text: as §1

[4] = test system: Flanders WT shoots; test: Survival of wild-type shoots on medium with G-418; assay type: in vivo, Linum usitatissimum; conditions: of four shoots
Text: as §1

[5] = test system: McGregor WT shoots; test: Survival of wild-type shoots on medium with G-418; assay type: in vivo, Linum usitatissimum; conditions: of four shoots
Text: as §1

[6] = test system: Ed 45 WT shoots; test: Survival of wild-type shoots on medium with G-418; assay type: in vivo, Linum usitatissimum; conditions: of four shoots
[7] = test system: hypocotyl segments used for the Agrobacterium tumefaciens inoculation; test: Sensitivity of hypocotyl segments to selection antibiotics; assay type: in vivo, flax; conditions: selective antibiotic for the initial transformation
Text: as §1

[8] = test system: wild-type flax regenerated shoots; test: Tolerance of regenerated shoots to G-418; assay type: in vivo; conditions: tests using regenerated shoots
Text: as §1

With `CN[C@@H]1[C@@H](O)[C@@H](O[C@@H]2[C@@H](O)[C@H](O[C@H]3O[C@H]([C@@H](C)O)[C@@H](O)[C@H](O)[C@H]3N)[C@@H](N)C[C@H]2N)OC[C@]1(C)O` [G-418] the “Number of shoots surviving 24 days on medium with G-418” value (“Number of shoots surviving 24 days” for short) ([1]; G-418 10 mg/l) was 4, the “Number of shoots surviving 24 days” value ([1]; G-418 20 mg/l) was 4 and the “Number of shoots surviving 24 days” value ([1]; G-418 30 mg/l) was 4. The “Number of shoots surviving 24 days” value ([1]; G-418 40 mg/l) was 4, the “Number of shoots surviving 24 days” value ([1]; G-418 50 mg/l) was 4 and 3 and the “Number of shoots surviving 24 days” value ([1]; G-418 70 mg/l) was 4. The “Number of shoots surviving 24 days” value ([1]; G-418 100 mg/l) was 3 and 4, the “Number of shoots surviving 24 days” value ([2]; G-418 10 mg/l) was 4 and the “Number of shoots surviving 24 days” value ([2]; G-418 20 mg/l) was 4. For the same molecule, the “Number of shoots surviving 24 days” value ([2]; G-418 30 mg/l) was 3 and 4, the “Number of shoots surviving 24 days” value ([2]; G-418 40 mg/l) was 4 and the “Number of shoots surviving 24 days” value ([2]; G-418 50 mg/l) was 4. The “Number of shoots surviving 24 days” value ([2]; G-418 70 mg/l) was 4, the “Number of shoots surviving 24 days” value ([2]; G-418 100 mg/l) was 4 and 3 and the “Number of shoots surviving 24 days” value ([2]; G-418 150 mg/l) was 2 and 4. The “Number of shoots surviving 24 days” value ([2]; G-418 200 mg/l) was 1 and 2, the “Number of shoots surviving 24 days” value ([3]; G-418 10 mg/l) was 4 and the “Number of shoots surviving 24 days” value ([3]; G-418 20 mg/l) was 4. The “Number of shoots surviving 24 days” value ([3]; G-418 30 mg/l) was 4, the “Number of shoots surviving 24 days” value ([3]; G-418 40 mg/l) was 4 and the “Number of shoots surviving 24 days” value ([3]; G-418 50 mg/l) was 4. The “Number of shoots surviving 24 days” value ([3]; G-418 70 mg/l) was 4, the “Number of shoots surviving 24 days” value ([3]; G-418 100 mg/l) was 4 and the “Number of shoots surviving 24 days” value ([3]; G-418 150 mg/l) was 4 and 3. For the same molecule, the “Number of shoots surviving 24 days” value ([4]; G-418 10 mg/l) was 4, the “Number of shoots surviving 24 days” value ([4]; G-418 20 mg/l) was 3 and 4 and the “Number of shoots surviving 24 days” value ([4]; G-418 50 mg/l) was 0. For the same molecule, the “Number of shoots surviving 24 days” value ([4]; G-418 70 mg/l) was 0, the “Number of shoots surviving 24 days” value ([4]; G-418 100 mg/l) was 0 and the “Number of shoots surviving 24 days” value ([4]; G-418 150 mg/l) was 0. For the same molecule, the “Number of shoots surviving 24 days” value ([4]; G-418 200 mg/l) was 0, the “Number of shoots surviving 24 days” value ([5]; G-418 10 mg/l) was 4 and the “Number of shoots surviving 24 days” value ([5]; G-418 20 mg/l) was 4 and 3. For the same molecule, the “Number of shoots surviving 24 days” value ([5]; G-418 30 mg/l) was 2, the “Number of shoots surviving 24 days” value ([5]; G-418 50 mg/l) was 0 and the “Number of shoots surviving 24 days” value ([5]; G-418 70 mg/l) was 0. The “Number of shoots surviving 24 days” value ([5]; G-418 100 mg/l) was 0, the “Number of shoots surviving 24 days” value ([5]; G-418 150 mg/l) was 0 and the “Number of shoots surviving 24 days” value ([5]; G-418 200 mg/l) was 0. For the same molecule, the “Number of shoots surviving 24 days” value ([6]; G-418 10 mg/l) was 4, the “Number of shoots surviving 24 days” value ([6]; G-418 20 mg/l) was 1 and 2 and the “Number of shoots surviving 24 days” value ([6]; G-418 30 mg/l) was 1 and 2. For the same molecule, the “Number of shoots surviving 24 days” value ([6]; G-418 40 mg/l) was 0, the “Number of shoots surviving 24 days” value ([6]; G-418 50 mg/l) was 0 and the “Number of shoots surviving 24 days” value ([6]; G-418 70 mg/l) was 0. The “Number of shoots surviving 24 days” value ([6]; G-418 100 mg/l) was 0, the “Number of shoots surviving 24 days” value ([6]; G-418 150 mg/l) was 0 and the “Number of shoots surviving 24 days” value ([6]; G-418 200 mg/l) was 0. For the same molecule, the “Callus production with the antibiotic as selective agent” value [7] was “no callus was produced” and the “Natural tolerance of wild-type flax” value [8] was “no natural tolerance”.
